Here are results for four compounds from PMC10288505, “Photoswitchable Calixarene Activators for Controlled Peptide Transport across Lipid Membranes” (Journal of the American Chemical Society, 2023).

A short description of series [1]: Photochemical characterisation (UV–vis absorption, 1H NMR) and thermal Z→E isomerization. Format: physicochemical. The text has this:
The photochromic properties of 1 and 2 were investigated in diluted aqueous solution by UV–vis absorption spectroscopy and in CD3OD by ^1H NMR.
On the other hand, irradiation of the Z-forms at λirr = 500 nm originates a photostationary state (PSS) composed of 70 and 80% of E-1 (Φ1Z → E = 0.6) and E-2 (Φ2Z → E = 0.5), respectively (Figure 1 and Figure S23). As generally observed for other azobenzene photoswitches,[42] the E isomers can be quantitatively recovered in the dark through the thermal Z → E isomerization, with 1 and 2 presenting activation energies of 215 and 93 kJ/mol, respectively (Figures S24 and S25).

Series [2] is described as follows: Carboxyfluorescein (CF) dye efflux assay, counterion-activated peptide transport. The format is biochemical. Particulars: for CF transport out of the liposomes on addition of peptide alone: peptide 4 µM, no activator, LUV 15 µM lipid with 50 mM CF encapsulated. On the procedure:
Dynamic light scattering (DLS) control experiments also confirmed liposome integrity under the experimental conditions employed in the different membrane transport assays, which ruled out potential membrane disruption interferences (Figure S34). Established dye efflux assays were performed using the carboxyfluorescein (CF) dye encapsulated at self-quenching concentrations in egg phosphatidylcholine large unilamellar vesicles (EYPC-LUV⊃CF).[26],[27],[29],[45] In these experiments, the fractional release of trapped CF (or fractional transport activity, Y), triggered by the addition of counterion activators and peptides, is monitored by time-resolved fluorescence spectroscopy and calibrated by the addition of Triton X-100 (Figure S35).
The studies were performed with both 1 and 2 in the E and Z configurations in the presence of fixed concentrations of liposomes and cationic peptides. […] Likewise, the addition of peptides alone or nonbinding anionic peptides in the presence of calixarene activators also results in unmodified fluorescence signal, confirming that the formation of the calixarene–peptide complex is critical to activate the transport process. […] This approach retrieves the Ymax (i.e., maximal CF release relative to liposome lysis after the addition of Triton X-100) and EC50 (i.e., the effective counterion activator concentration required to reach Ymax/2) as the relevant parameters to measure the efficiency of the counterion activators.
10 mg of L-α-phosphatidylcholine (95%) (Egg, Chicken) were dissolved in 1 ml of chloroform. The solution was evaporated under a nitrogen stream, under rotation, to form a thin lipid film in the bottom of the flask. This film was left to dry under vacuum for a minimum of 1h. After drying the maximum of the solvent from the solution, 1 ml of the solution to incorporate (CF 50 mM in 5 mM phosphate buffer for EYPC-LUV⊃CF and only phosphate buffer 5 mM pH 7.4, for the LUVs with no encapsulation) was added to the thin film and the lipids were left to resuspend under agitation, in a 40 °C bath, for 30 min. The resuspended lipid mixture was then submitted to 10 freeze-thaw cycles and extruded 23 times through a 100 nm membrane, to obtain uniform, monodisperse liposomes with high encapsulation of the added solution. The liposomes were then separated from the molecules that were not encapsulated by size-exclusion chromatography, with Sephadex G25 (V = 37 ml), obtaining two fractions, one with high turbidity and a clear one, corresponding to the encapsulated and free sensor, respectively. The samples were then analyzed by Dynamic Light Scattering (DLS) to determine the average size of the liposomes in solution and their size distribution.
All assays were done up to 48h after the preparation of the vesicles to ensure their integrity and majority of CF still encapsulated.
EC50 and Ymax calculation. For the measurement of 1 and 2’s effectiveness as a counterion activators of polyarginine transport, dye efflux assays were executed at several counterion activator concentrations, while maintaining the concentration of peptide and LUV fixed as indicated in the respective figures.
For the dye efflux assays, CF emission was followed throughout the assay, with consecutive additions of the elements of the solution – the initial solution presented only the vesicles at a fixed concentration. A counterion activator aliquot is then added according to the concentration to be tested and the emission is measured to confirm that CF remains encapsulated; some counterion activators can act as detergents at sufficient concentrations. Finally, the peptide in question is added and fluorescence spectra are measured […]
until the emission stabilizes and a maximum of release is reached. If the counterion activator has the capacity to activate the transport, CF should be co-transported to the exterior of the liposome with the influx of the counterion-peptide complex. Finally, Triton X-100 is added to the solution to dissolve the […]

In the next series the test system is hexaarginine (R6). The series can be described thus: Indicator displacement assay with host:LCG reporter pair, guest R6. Format: binding. As to conditions: association constant, competitive dye displacement with LCG, 5 mM phosphate buffer pH 7.3; only the lower limit can be estimated. The text has this:
(§1) The binding affinity of the anionic calixarene activators toward cationic peptides was investigated using a small library of highly hydrophilic oligoarginines, from 3 to 8 residues. These peptides are not able to spontaneously transverse zwitterionic artificial membranes in vesicle assays, which allows the accurate evaluation of the calixarenes 1 and 2 as counterion activators without interferences from the transport of the peptide alone.[43]−[45] First, the formation of host–guest complexes between 1/2 and the selected peptides was verified by indicator displacement assays using lucigenin (LCG) as the fluorescent indicator.[46] As previously reported for other sulfonatocalixarene derivatives,[46] the formation of host–guest binding pairs between calixarenes 1/2 in the E- and Z-forms and LCG results in significant static fluorescence quenching (see Figure 2A and Figures S26 and S27). Quantitative analysis of the fluorescence titration data using a 1:1 host:guest binding model allows the determination of the respective binding constants (K) reported in Table 1. As can be observed, both 1/2 display high affinity for the LCG dye, on the 10^7 M^–1 range, which seems to be independent of the nature and conformation of the azobenzene arm. […] The host:LCG binding pairs were then employed in the above-mentioned indicator displacement assays to investigate the binding affinity of oligoarginines toward 1 and 2 (see Figure 2B and Figures S29–S33).
Figure 2 (A) Fluorescence titration of the lucigenin dye (LCG, 1.5 μM) with increasing concentrations of E-2 in water (5 mM phosphate buffer, pH 7.3). […]
(§2) The binding affinities of the counterion activators and peptide complexes were analyzed by indicator displacement assays. […] Firstly, the affinity for LCG was calculated for each of the activators, by titrations followed by fluorescence spectroscopy leading to almost full quenching of the emission. […]
(§3) Figure S26 - Fluorescence titration of the lucigenin dye with increasing concentrations of A) E-1 and B) Z–1 in water (5 mM phosphate buffer pH 7.3). […]

Another series relates to R3. As to the kind of experiment: Indicator displacement assay with host:LCG reporter pair, guest R3. Particulars: association constant, competitive dye displacement with LCG, 5 mM phosphate buffer pH 7.3, mean ± SD of triplicate. Format: binding.
Source text: as §1
(§4) The binding affinities of the counterion activators and peptide complexes were analyzed by indicator displacement assays. The fluorescent dye chosen for these experiments was lucigenin (LCG) due to its complex with the receptor SC4 being well characterized and due to the high variation of emission between its bound and free form. Firstly, the affinity for LCG was calculated for each of the activators, by titrations followed by fluorescence spectroscopy leading to almost full quenching of the emission. For the competitive assays, a concentration of LCG and activator was chosen in order to have approximately 90% of complexed dye and that mixture was then titrated with each of the peptides, leading to the regaining of emission when LCG was release from the complex.
(§5) Figure S26 - Fluorescence titration of the lucigenin dye with increasing concentrations of A) E-1 and B) Z–1 in water (5 mM phosphate buffer pH 7.3). LCG concentration was fixed 0.2 µM in all experiments, except for the first E-1 titrations were [LCG]
(§6) (1 picture or pasted object on this page, not shown here)
(§7) Figure S29 - Indicator displacement titration of the several oligoarginines A) R3 B) R4 C) R6 and D) R8, using SC4:LCG as the reporter pair (5 mM phosphate buffer pH 7.3). LCG and SC4 concentrations were fixed at A) 0.22 and 0.50 µM, for all three replicates, B) 0.22 and 4.7 µM for the first titration and 0.22 and 4.3 µM for the remaining two replicates, C) 0.22 and 0.45 µM and 1.1 and 0.85 µM and D) 0.28 and 0.43 µM and 1.1 and 0.85 µM, respectively, from left to right.
(§8) Figure S30 - Indicator displacement titration of the several oligoarginines A) R3 B) R4 C) R6 and D) R8, using E-1:LCG as the reporter pair (5 mM phosphate buffer pH 7.3) LCG and E-1 concentrations were fixed at A) 0.11 and 0.25 µM, for all three replicates, B) 0.22 and 0.5 µM, for the first two titrations and 0.22 and 0.23 µM for the remaining replicate, C) 4.0 and 3.8 µM and 0.22 and 0.5 µM, D) 4 and 3 µM and 0.22 and 0.5 µM, respectively, from left to right. […]

Another series deals with R4. The series can be described thus: Indicator displacement assay with host:LCG reporter pair, guest R4. Format: binding. Particulars: association constant, competitive dye displacement with LCG, 5 mM phosphate buffer pH 7.3, mean ± SD of triplicate.
Source text: as §1, §4, §5, §6, §7, §8

Another series relates to R8. The series can be described thus: Indicator displacement assay with host:LCG reporter pair, guest R8. Format: binding. Particulars: association constant, competitive dye displacement with LCG, 5 mM phosphate buffer pH 7.3; only the lower limit can be estimated.
Source text: as §1, §2, §3

Some results are limits rather than exact numbers.

Consider `CCCCc1ccc(N=Nc2ccc(OCCCOc3c4cc(S(=O)(=O)[O-])cc3Cc3cc(S(=O)(=O)[O-])cc(c3O)Cc3cc(S(=O)(=O)[O-])cc(c3O)Cc3cc(S(=O)(=O)[O-])cc(c3O)C4)cc2)cc1.[Li+].[Li+].[Li+].[Li+]` [compound 2], for which, in series [1] (in the dark), the “Activation energy of thermal Z → E isomerization” value came to 22.2 kcal/mol. The “Conversion of the E isomer into the Z-form” value in series [1] (irradiation at 366 nm) is “quantitative conversion”. Besides, in series [1] (irradiation at 366 nm, diluted aqueous solution), the “Photoisomerization quantum yield Φ E → Z” value amounted to 0.4. Further, the “Photoisomerization quantum yield Φ Z → E” value in series [1] (irradiation at 500 nm) was found to be 0.5. Also, in series [2] (in the absence of peptides, EYPC-LUV⊃CF), the “CF fluorescence signal (vesicle leakage) on addition of counterion activator alone” value was “does not affect the intensity of the fluorescence signal”.

For `N=C(N)NCCC[C@H](NC(=O)[C@H](CCCNC(=N)N)NC(=O)[C@H](CCCNC(=N)N)NC(=O)[C@H](CCCNC(=N)N)NC(=O)[C@H](CCCNC(=N)N)NC(=O)[C@H](CCCNC(=N)N)NC(=O)[C@H](CCCNC(=N)N)NC(=O)[C@@H](N)CCCNC(=N)N)C(N)=O` [R8, reference compound], the “CF transport out of the liposomes on addition of peptide alone” value in series [2] is recorded as “did not activate the transport of CF”.

Turning to `O=S(=O)(O)c1cc2c(O)c(c1)Cc1cc(S(=O)(=O)O)cc(c1O)Cc1cc(S(=O)(=O)O)cc(c1O)Cc1cc(S(=O)(=O)O)cc(c1O)C2` [SC4, sulfonatocalix[4]arene, reference compound], in the series on hexaarginine (R6), the “Apparent affinity constant K for R6” value is listed as >1 × 10^9 ^a M^–1. In the series with R3, the “Apparent affinity constant K for R3” value was “(5.5 ± 0.3) × 10^6 M^–1”. The “Apparent affinity constant K for R4” value in the series with R4 is “(2.7 ± 0.4) × 10^8 M^–1”. For the same compound, the “Apparent affinity constant K for R8” value in the series with R8 was >1 × 10^9 ^a M^–1.

On to `N=C(N)NCCC[C@H](NC(=O)[C@H](CCCNC(=N)N)NC(=O)[C@H](CCCNC(=N)N)NC(=O)[C@H](CCCNC(=N)N)NC(=O)[C@H](CCCNC(=N)N)NC(=O)[C@@H](N)CCCNC(=N)N)C(N)=O` [R6, hexaarginine, reference compound], for which, in series [2], the “CF transport out of the liposomes on addition of peptide alone” value is on record as “did not activate the transport of CF”.
